Measured values: patent publication US8835425B2, “Use of selective GABA A α5 negative allosteric modulators for the treatment of central nervous system conditions” (Hoffmann-La Roche Inc., priority 2010, dated 2014)

Assays:
[1] = test system: hippocampus of TS and CO mice; test: Hippocampal neurogenesis, granule cell density and GAD+ boutons after chronic treatment; type: in vivo
Text: Alterations in hippocampal morphology such as reductions in granule cell density and hippocampal neurogenesis have also been implicated in the learning deficits shown by Ts65Dn mice. Spatial learning is known to depend on the functional integrity of the hippocampus, a structure that plays a key role in information encoding and retrieving in the CNS. […] Also, neuronal survival of the cells that have undergone maturation was also normalized in TS mice, as shown by the increase in DAPI+ cells found in TS mice after chronic 8581 administration (p=0.026; FIG. 14).

[2] = test system: Nf1+/− mice; test: Spatial learning of Nf1+/− mice in the Morris water maze; type: in vivo
Protocol: 1 week after handling, mice were trained with two consecutive trials per day for 8-9 days 30 minutes after i.p. injection of 8581 or vehicle. In each trial, mice were given 60 s to find the platform. After each trial, mice were put on the platform for 15 s. On the day of probe trial (Day 3, Day 5, Day 7, and Day 9) 60 s of probe trial was performed after training. […] Two different measures of spatial learning (% search in quadrant (FIG. 16) and average proximity to the target platform (FIG. 17)) show similarly, that active pharmaceutical compounds used in present invention rescue spatial learning deficits of Nf1+/− mice (CO/veh (n=10), Nf1/veh (n=9), CO/8581 (n=10), and Nf1/8581 (n=11).
Effects of active pharmaceutical compounds used in present invention on the performance of Nf1+/− mice were tested under conditions in which the spatial learning of the mutants was indistinguishable from controls (less extinction due to lower number of probe trials). Mean percentage of time spent in each quadrant during a probe trial in plotted in FIG. 18. Average proximity to the target quadrant is plotted in FIG. 19. […] On probe trial 1 and 2 (days 5 and 7), all groups searched selectively in the target quadrant (p<0.01), and there were no differences between groups.

[3] = test system: Control mice (B16;129F1); test: Contextual fear conditioning; type: in vivo
Protocol: Control mice (B16;129F1) were trained with a contextual fear-conditioning protocol using either one trial per day for one day (FIG. 20) or two consecutive days (FIG. 21). On the training day, 30 minutes after i.p. injection of 8581 or vehicle, mice were placed in training chamber. A foot shock (1 s, 0.4 mA) was delivered 40 s after placement. Conditioned response (percentage freezing time of the mice) was recorded 24 h after training by using automated procedures. Average freezing levels during the first 30 s of each training day and 24 hr after the last training trial were plotted.

[4] = test system: Nf1+/− mice and control mice (B16;129F1); test: Rotarod, accelerating speeds, Nf1+/− and control mice; type: in vivo; details: Nf1+/− mutant or control mice, 1 mg/kg i.p.
Protocol: Control mice (B16;129F1) and Nf1+/− mice were treated with vehicle or with 8581 (n=10 for each of the 4 groups). 30 minutes after i.p. injection of 8581 (1 mg/kg) or vehicle, mice were tested with a rotarod protocol using accelerating speeds (4-40 rpm, maximal duration 300 s) for four trials with 30 min intertrial interval. FIG. 22 visualizes performance of control mice in the Rotarod and FIG. 23 illustrates the performance of Nf1+/− mice in the Rotarod.

[5] = 8581 concentration in serum after i.p. injection; type: in vivo, mice; details: ip; for concentration at 0.5 h: 0.5 h after i.p. injection; for concentration at 3 h: 3 h after i.p. injection; for concentration at 7 h: 7 h after i.p. injection; for concentration at 24 h: 24 h after i.p. injection
Protocol: Table 5. 8581 concentration in serum (ng/ml) of Nf1+/− and control mice 0.5, 3, 7, and 24 hours after i.p. injection

[6] = TS mice, chronic administration
[7] = B16;129F1, mouse, 0.1 mg/kg, control mice
[8] = B16;129F1, mouse, 1 mg/kg, control mice

With `FC(F)c1ncn2c1Cn1ncnc1-c1cc(Br)ccc1-2` [Compound 8581, 3-Bromo-10-difluoromethyl-9H-imidazo[1,5-a][1,2,4]triazolo[1,5-d][1,4]benzodiazepine] the “number of GABAergic synapses (GAD+) in CO mice” value ([1]; CO mice, chronic treatment) was “non-significant tendency to increase”, the “density of proliferating (Ki67+) cells in hippocampus” value [1, 6] was “completely restored the density of proliferating cells” and the “neuronal survival (DAPI+ cells, granular cell layer)” value [1, 6] was “normalized”. The “number of GAD positive boutons in hippocampus” value ([1]; TS mice, chronic treatment) was “decreased dramatically”, the “performance of Nf1+/− mice under conditions that occlude their behavioral deficits” value ([2]; 1 mg/kg) was “does not affect the performance” and the “spatial learning deficits of Nf1+/− mice” value ([2]; Nf1+/− mice, 1 mg/kg i.p. 30 minutes before training, probe trials) was “rescued the spatial learning deficits”. The “contextual conditioning, training for two consecutive days” value ([3]; control mice, 1 mg/kg i.p.) was “significant increase in contextual conditioning”, the “freezing at 24 hr after training” value ([3]; control mice, 3 mg/kg i.p., one training day) was “significantly enhanced freezing” and the “contextual fear conditioning dose response curve” value ([3]; control mice, 0.3, 1.0 and 3.0 mg/kg) was “dose-dependent increase in contextual fear conditioning”. For the same compound, the performance in rotarod [4] was “did not affect the performance”, the concentration at 0.5 h [5, 7] was 9.45 ± 3.05 ng/mL and the concentration at 0.5 h [5, 8] was 271 ± 1 ng/mL. It also gave a concentration at 3 h [5, 7] of under 0.5 ng/mL, a concentration at 3 h [5, 8] of 11.9 ± 2.51 ng/mL and a concentration at 7 h [5, 7] of under 0.5 ng/mL. For the same compound, the concentration at 7 h [5, 8] was under 0.5 ng/mL, the concentration at 24 h [5, 7] was under 0.5 ng/mL and the concentration at 24 h [5, 8] was under 0.5 ng/mL. The concentration at 0.5 h ([5]; mouse, 0.1 mg/kg, Nf1+/− mice) was 11 ± 1.73 ng/mL, the concentration at 0.5 h ([5]; mouse, 1 mg/kg, Nf1+/− mice) was 192 ± 35 ng/mL and the concentration at 3 h ([5]; mouse, 0.1 mg/kg, Nf1+/− mice) was under 0.5 ng/mL. The concentration at 3 h ([5]; mouse, 1 mg/kg, Nf1+/− mice) was 8.95 ± 0.5 ng/mL, the concentration at 7 h ([5]; mouse, 0.1 mg/kg, Nf1+/− mice) was under 0.5 ng/mL and the concentration at 7 h ([5]; mouse, 1 mg/kg, Nf1+/− mice) was under 0.5 ng/mL. The concentration at 24 h ([5]; mouse, 0.1 mg/kg, Nf1+/− mice) was under 0.5 ng/mL and the concentration at 24 h ([5]; mouse, 1 mg/kg, Nf1+/− mice) was under 0.5 ng/mL.
